Key:
A2780 cells [1] = experiment: In-Vitro Cell Proliferation Assay (SRB); format: cell-based; details: Homo sapiens, A2780, 72 h
Outline: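 A2780 cells treated 72 h at 37 °C, 5% CO2 with serially diluted compound, 0.1% DMSO final. Viable cells by sulforhodamine B staining after TCA fixation, absorbance 570 nm, background-subtracted for % inhibition and IC50; specificity checked by co-addition of NAM or NMN.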

NAMPT = NAMPT (Homo sapiens (Human), UniProt P43490); experiment: Biochemical Inhibition Assay (NAMPT enzymatic reaction, NMN by mass spectrometry); details: recombinant His-tagged NAMPT 33 nM, 1 μM NAM, 30 minutes; read-out: Biochem IC50
Outline: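 His-tagged human NAMPT from E. coli in 50 mM Hepes pH 7.5, 50 mM NaCl, 5 mM MgCl2, 1 mM THP. Product NMN quantified by RapidFire ESI mass spectrometry, normalised to L-cystathionine internal control and background-subtracted; % inhibition converted to IC50.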

A2780 cells [2] = experiment: In Vivo Xenograft Studies; details: A2780 xenograft in C.B-17 scid mice, p.o. BID for 5 or 10 days
Protocol: In Vivo Xenograft Studies: […] The compounds were formulated in 60:30:10 PEG-400:D5W: Ethanol and administered p.o., at the dose volume of 10 ml/kg BID for a duration of 5 or 10 days. The dose used for efficacy was selected from the MTD (Maximum Tolerated Dose) study. Mice were weighed and tumors measured using vernier calipers every alternate day. Tumor volume was calculated according to the formula (length×width^2)/2. All animal work was approved by the Institutional Animal Care and Use Committee of Biological Resource Centre, Singapore.

tumor cell lines = details: broad range of tumor cell lines; cited from earlier work
mouse mammary carcinoma = mouse mammary carcinoma model; cited from earlier work
HepG2 cells = details: cited from earlier work
[3] = test system: murine renal cell carcinoma; details: cited from earlier work
THP-1 leukemia cell line = details: cited from earlier work
K562 leukemia cell line = details: cited from earlier work

Chain of NAMPT (P43490 whole entry): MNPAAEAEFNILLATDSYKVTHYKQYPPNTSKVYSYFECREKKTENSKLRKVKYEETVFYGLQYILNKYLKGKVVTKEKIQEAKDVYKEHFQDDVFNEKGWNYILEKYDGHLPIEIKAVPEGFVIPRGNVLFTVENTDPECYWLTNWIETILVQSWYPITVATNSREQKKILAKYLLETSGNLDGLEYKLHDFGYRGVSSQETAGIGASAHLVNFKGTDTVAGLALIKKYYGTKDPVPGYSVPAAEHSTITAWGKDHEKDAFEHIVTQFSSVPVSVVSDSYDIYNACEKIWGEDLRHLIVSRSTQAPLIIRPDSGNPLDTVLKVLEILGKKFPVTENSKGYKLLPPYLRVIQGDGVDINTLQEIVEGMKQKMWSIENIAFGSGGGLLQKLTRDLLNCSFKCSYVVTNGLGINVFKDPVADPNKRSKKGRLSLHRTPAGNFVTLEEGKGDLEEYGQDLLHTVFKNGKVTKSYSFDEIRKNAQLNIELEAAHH

SMILES	IC50 (A2780 cells [1]) [nM]	IC50 (NAMPT) [nM]	other results
CCOc1ccccc1S(=O)(=O)c1ccc(CNC(=NC#N)Nc2ccncc2)cc1 [2-cyano-1-({4-[(2-ethoxybenzene)sulfonyl]phenyl}methyl)-3-(pyridin-4-yl)guanidine]	3.5	7.1	effect on tumor growth (A2780 cells [2]): delayed tumor growth
N#C/N=C(\NCCCCCCOc1ccc(Cl)cc1)Nc1ccncc1 [CHS-828]			cell growth (tumor cell lines): potently inhibits cell growth
O=C(/C=C/c1cccnc1)NCCCCC1CCN(C(=O)c2ccccc2)CC1 [FK866, (E)-N-[4-(1-benzoylpiperidin-4-yl)butyl]-3-(pyridine-3-yl)-acrylamide]			tumor growth (mouse mammary carcinoma): induces a delay in tumor growth; apoptosis (HepG2 cells): induces apoptosis; activities in tumor model [3]: anti-tumor, antimetastatic, and anti-angiogenic activities; effect on MNNG-induced cell death (THP-1 leukemia cell line): chemosensitizing effect; effect on MNNG-induced cell death (K562 leukemia cell line): chemosensitizing effect
N#CN=C(NCc1ccc(S(=O)(=O)c2cc(F)cc(Cl)c2)cc1)Nc1ccncc1 [1-({4-[(3-chloro-5-fluorobenzene)sulfonyl]phenyl}methyl)-2-cyano-3-(pyridin-4-yl)guanidine]	6.9	5.1	
N#CN=C(NCc1ccc(S(=O)(=O)c2cccc(C#N)c2)cc1)Nc1ccncc1 [2-cyano-1-({4-[(3-cyanobenzene)sulfonyl]phenyl}methyl)-3-(pyridin-4-yl)guanidine]	6.2	1.7	
COc1ccc(Cl)cc1S(=O)(=O)c1ccc(CNC(=NC#N)Nc2ccncc2)cc1 [1-({4-[(5-chloro-2-methoxybenzene)sulfonyl]phenyl}methyl)-2-cyano-3-(pyridin-4-yl)guanidine]	6.4	5	
N#CN=C(NCc1ccc(S(=O)(=O)c2ccc(Cl)c(C(F)(F)F)c2)cc1)Nc1ccncc1 [1-[(4-{[4-chloro-3-(trifluoromethyl)benzene]sulfonyl}phenyl)methyl]-2-cyano-3-(pyridin-4-yl)guanidine]	1.5	1	
Cc1cc(F)cc(S(=O)(=O)c2ccc(CN/C(=N\C#N)Nc3ccncc3)cc2)c1 [2-cyano-1-({4-[(3-fluoro-5-methylbenzene)sulfonyl]phenyl}methyl)-3-(pyridin-4-yl)guanidine]	3.3	1.7	
COc1ccc(S(=O)(=O)c2ccc(CNC(=NC#N)Nc3ccncc3)cc2)cc1OC [2-cyano-1-({4-[(3,4-dimethoxybenzene)sulfonyl]phenyl}methyl)-3-(pyridin-4-yl)guanidine]	3.4	4	
COc1cc(Cl)ccc1S(=O)(=O)c1ccc(CNC(=NC#N)Nc2ccncc2)cc1 [1-({4-[(4-chloro-2-methoxybenzene)sulfonyl]phenyl}methyl)-2-cyano-3-(pyridin-4-yl)guanidine]	1.9	3	
Cc1cc(Cl)cc(S(=O)(=O)c2ccc(CNC(=NC#N)Nc3ccncc3)cc2)c1 [1-({4-[(3-chloro-5-methylbenzene)sulfonyl]phenyl}methyl)-2-cyano-3-(pyridin-4-yl)guanidine]	1.6	3.3	
CCOc1cccc(S(=O)(=O)c2ccc(CNC(=NC#N)Nc3ccncc3)cc2)c1 [2-cyano-1-({4-[(3-ethoxybenzene)sulfonyl]phenyl}methyl)-3-(pyridin-4-yl)guanidine]	6.5	4.3	
N#CN=C(NCc1ccc(S(=O)(=O)c2ccc(Cl)c(Cl)c2)cc1)Nc1ccncc1 [2-cyano-1-({4-[(3,4-dichlorobenzene)sulfonyl]phenyl}methyl)-3-(pyridin-4-yl)guanidine]	1	1.7	

The next lines start with results.

IC50 (A2780 cells [1]) [nM]	IC50 (NAMPT) [nM]	SMILES	other results
28.3	6.6	N#CN=C(NCc1ccc(S(=O)(=O)c2cccc(C(=O)NC3CCCC3)c2)cc1)Nc1ccncc1 [3-[(4-{[2-cyano-3-(pyridin-4-yl)carbamimidamido]methyl}benzene)sulfonyl]-N-cyclopentylbenzamide]	
7.6	16.3	N#CN=C(NCc1ccc(S(=O)(=O)c2ccc(C(F)(F)F)cc2)cc1)Nc1ccncc1 [2-cyano-3-(pyridin-4-yl)-1-[(4-{[4-(trifluoromethyl)benzene]sulfonyl}phenyl)methyl]guanidine]	
3.2	6	CCOc1ccc(S(=O)(=O)c2ccc(CNC(=NC#N)Nc3ccncc3)cc2)cc1F [2-cyano-1-({4-[(4-ethoxy-3-fluorobenzene)sulfonyl]phenyl}methyl)-3-(pyridin-4-yl)guanidine]	
6.4	4.1	CCCn1cc(S(=O)(=O)c2ccc(CNC(=NC#N)Nc3ccncc3)cc2)cn1 [2-cyano-1-{[4-(1-propyl-1H-pyrazole-4-sulfonyl)phenyl]methyl}-3-(pyridin-4-yl)guanidine]	
15	20.4	COc1ccc(S(=O)(=O)c2ccc(CNC(=NC#N)Nc3ccncc3)cc2)cc1C [2-cyano-1-({4-[(4-methoxy-3-methylbenzene)sulfonyl]phenyl}methyl)-3-(pyridin-4-yl)guanidine]	
4.1	2.6	N#C/N=C(\NCc1ccc(S(=O)(=O)c2cccc(Cl)c2)cc1)Nc1ccncc1 [(E)-3-({4-[(3-chlorobenzene)sulfonyl]phenyl}methyl)-2-cyano-1-(pyridin-4-yl)guanidine]	
11.8	3.5	N#CN=C(NCc1ccc(S(=O)(=O)c2ccc(OC(F)(F)F)cc2)cc1)Nc1ccncc1 [2-cyano-3-(pyridin-4-yl)-1-[(4-{[4-(trifluoromethoxy)benzene]sulfonyl}phenyl)methyl]guanidine]	
11.9	5.2	N#CN=C(NCc1ccc(S(=O)(=O)c2cncc(F)c2)cc1)Nc1ccncc1 [2-cyano-1-{[4-(5-fluoropyridine-3-sulfonyl)phenyl]methyl}-3-(pyridin-4-yl)guanidine]	
12.8	4.6	CN(C)C(=O)c1cc(F)cc(S(=O)(=O)c2ccc(CNC(=NC#N)Nc3ccncc3)cc2)c1 [3-[(4-{[2-cyano-3-(pyridin-4-yl)carbamimidamido]methyl}benzene)sulfonyl]-5-fluoro-N,N-dimethylbenzamide]	
3.5	5.3	COc1ccc(C(C)C)cc1S(=O)(=O)c1ccc(CNC(=NC#N)Nc2ccncc2)cc1 [2-cyano-1-[(4-{[2-methoxy-5-(propan-2-yl)benzene]sulfonyl}phenyl)methyl]-3-(pyridin-4-yl)guanidine]	
1.2	2.5	N#CN=C(NCc1ccc(S(=O)(=O)c2cccc(C(F)(F)F)c2)cc1)Nc1ccncc1 [2-cyano-3-(pyridin-4-yl)-1-[(4-{[3-(trifluoromethyl)benzene]sulfonyl}phenyl)methyl]guanidine]	

Reference: US9676721B2, “Compounds and compositions for the inhibition of NAMPT” (FORMA TM, LLC, priority 2010, dated 2017)
